From patent US5506244A, “Cyclic amino acid derivatives” (Ciba-Geigy Corporation, priority 1994, dated 1996)
Like-named read-outs stand apart in the source and are kept apart here.

Legend:
[1] = tested on: Angiotensin I induced pressor response; experiment: inhibition of the angiotensin I induced pressor response in normotensive rats; type: in vivo, rat; details: 10 mg/Kg p.o., angiotensin I 300 ng/kg i.v.
Experimental: The in vivo test for intravenously administered compounds is performed with male, normotensive rats, which are anesthetized with sodium metofan. A femoral artery and femoral vein are cannulated respectively for direct blood pressure measurement on i.v. administration of angiotensin I and i.v. or p.o. administration of a compound of this invention. After the basal blood pressure is stabilized, pressor responses to 3 challenges of 300 ng/kg angiotensin I i.v., at 15 minute intervals, are obtained. Such pressure responses are usually again obtained at 15, 30, 60 and 90 minutes, and then every hour up to 6 hours after i.v. or p.o. administration of the compound to be tested, and compared with the initial responses. Any observed decrease of said pressor response is an indication of Angiotensin I converting enzyme inhibition.

[2] = target: T1, angiotensin-converting enzyme (ACE) (Oryctolagus cuniculus, UniProt P12822); experiment: in vitro inhibition of angiotensin-converting enzyme (ACE); type: biochemical
T1 sequence (P12822 34-1310): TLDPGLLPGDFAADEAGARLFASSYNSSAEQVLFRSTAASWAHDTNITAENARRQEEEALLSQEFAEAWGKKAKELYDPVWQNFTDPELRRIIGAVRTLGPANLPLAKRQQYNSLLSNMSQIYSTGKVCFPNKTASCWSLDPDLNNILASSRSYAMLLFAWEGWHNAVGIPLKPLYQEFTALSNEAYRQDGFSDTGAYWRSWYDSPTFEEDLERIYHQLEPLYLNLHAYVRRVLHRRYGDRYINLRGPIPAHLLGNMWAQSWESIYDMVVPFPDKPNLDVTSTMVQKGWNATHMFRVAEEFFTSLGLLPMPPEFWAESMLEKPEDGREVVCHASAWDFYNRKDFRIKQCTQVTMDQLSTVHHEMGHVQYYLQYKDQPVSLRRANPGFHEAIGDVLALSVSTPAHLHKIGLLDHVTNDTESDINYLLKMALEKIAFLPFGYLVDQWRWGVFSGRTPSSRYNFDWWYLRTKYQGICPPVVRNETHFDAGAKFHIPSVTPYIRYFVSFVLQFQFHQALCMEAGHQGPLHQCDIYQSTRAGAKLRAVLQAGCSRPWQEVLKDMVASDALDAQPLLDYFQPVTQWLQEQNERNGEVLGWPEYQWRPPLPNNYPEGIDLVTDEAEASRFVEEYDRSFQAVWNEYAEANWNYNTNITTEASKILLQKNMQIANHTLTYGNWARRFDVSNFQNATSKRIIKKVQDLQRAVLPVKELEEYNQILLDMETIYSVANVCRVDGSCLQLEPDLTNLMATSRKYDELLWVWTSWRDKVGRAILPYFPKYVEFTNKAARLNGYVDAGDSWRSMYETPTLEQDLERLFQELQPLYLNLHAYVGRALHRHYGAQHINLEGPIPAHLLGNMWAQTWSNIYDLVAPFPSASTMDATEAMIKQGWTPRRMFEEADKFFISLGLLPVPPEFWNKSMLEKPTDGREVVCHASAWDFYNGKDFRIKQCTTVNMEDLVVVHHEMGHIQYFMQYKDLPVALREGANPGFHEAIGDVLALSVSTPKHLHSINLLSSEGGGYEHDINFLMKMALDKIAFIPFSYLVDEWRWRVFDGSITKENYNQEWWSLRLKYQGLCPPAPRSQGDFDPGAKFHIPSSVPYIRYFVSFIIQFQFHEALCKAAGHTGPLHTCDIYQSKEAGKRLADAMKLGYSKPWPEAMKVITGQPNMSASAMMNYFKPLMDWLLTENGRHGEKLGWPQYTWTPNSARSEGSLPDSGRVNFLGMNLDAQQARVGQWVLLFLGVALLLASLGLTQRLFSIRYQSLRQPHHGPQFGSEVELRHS
Experimental: (§1) In vitro testing is most appropriate for the free carboxylic acids of the invention. The test compound is dissolved in dimethyl sulfoxide, ethanol, or 0.25 M sodium bicarbonate solution, and the solution is diluted with buffer to the desired concentration.
The buffer for the ACE assay is 300 mM NaCl, 100 mM KH2 PO4 (pH 8.3). The reaction is initiated by the addition of 100 μl of hippuryl-histidyl-leucine (2 mg/ml) to tubes containing enzyme and drug in a volume of 150 μl and tubes are incubated for 30 minutes at 37° C. The reaction is terminated by the addition of 0.75 ml 0.6 N NaOH. 100 μl of freshly prepared 0-pthaldehyde solution (2 mg/ml in methanol) is added to the tubes, the contents are mixed and allowed to stand at room temperature. After 10 minutes, 100 μl of 6 N HCl is added. The tubes are centrifuged and the supernatant optical density is read at 360 nm.

[3] = target: T2, neutral endopeptidase (NEP, EC 3.4.24.11) (Rattus norvegicus, UniProt P07861); experiment: in vitro inhibition of neutral endopeptidase (GAAP assay); type: biochemical; details: GAAP 500 μM, rat kidney cortex membranes, pH 7.4, 25° C., 10 minutes
T2 construct: rat kidney cortex membranes prepared by method of Maeda; from tissue; host or cells: rat kidney cortex membranes
T2 sequence (P07861 1-750): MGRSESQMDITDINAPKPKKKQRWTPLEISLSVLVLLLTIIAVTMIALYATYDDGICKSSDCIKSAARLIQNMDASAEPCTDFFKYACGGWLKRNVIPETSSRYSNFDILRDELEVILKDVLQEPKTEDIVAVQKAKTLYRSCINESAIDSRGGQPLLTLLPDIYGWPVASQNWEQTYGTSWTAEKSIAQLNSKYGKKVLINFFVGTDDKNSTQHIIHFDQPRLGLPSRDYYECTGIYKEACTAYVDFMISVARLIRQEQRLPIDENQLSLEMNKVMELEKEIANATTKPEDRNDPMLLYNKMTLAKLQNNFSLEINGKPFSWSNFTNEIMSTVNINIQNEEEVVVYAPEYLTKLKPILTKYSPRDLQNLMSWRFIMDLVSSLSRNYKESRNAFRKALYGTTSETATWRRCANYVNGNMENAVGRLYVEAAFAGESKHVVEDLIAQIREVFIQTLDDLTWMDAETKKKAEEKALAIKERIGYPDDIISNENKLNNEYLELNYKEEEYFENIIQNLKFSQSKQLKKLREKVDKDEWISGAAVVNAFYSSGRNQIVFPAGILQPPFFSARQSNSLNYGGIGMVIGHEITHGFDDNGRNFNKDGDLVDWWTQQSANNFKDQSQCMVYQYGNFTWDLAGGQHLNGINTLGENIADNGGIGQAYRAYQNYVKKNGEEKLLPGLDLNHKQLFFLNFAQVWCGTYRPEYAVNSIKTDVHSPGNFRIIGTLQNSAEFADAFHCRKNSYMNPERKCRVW
Experimental: as §1
The in vitro inhibition of neutral endopeptidase (NEP, EC 3.4.24.11 ) can be determined as follows:
Neutral endopeptidase 3.4.24.11 activity is determined by the hydrolysis of the substrate glutaryl-Ala-Ala-Phe-2-naphthylamide (GAAP) using a modified procedure of Orlowski and Wilk (1981). The incubation mixture (total volume 125 μl) contains 4.2 μg of protein (rat kidney cortex membranes prepared by method of Maeda et at, 1983), 50 mM iris buffer, pH 7.4 at 25° C., 500 μM substrate (final concentration), and leucine aminopeptidase M (2.5 μg). The mixture is incubated for 10 minutes at 25° C. and 100 μl of fast garnet (250 μg fast garnet/ml of 10% Tween 20 in 1 M sodium acetate, pH 4.2) is added. Enzyme activity is measured spectrophotometrically at 540 nm. One unit of NEP 24.11 activity is defined as 1 nmol of 2-naphthylamine released per minute at 25° C at pH 7.4. IC50 values are determined, i.e. the concentration of test compound required for 50% inhibition of the release of 2-naphthylamine.

Row | IC50 ([2]; hippuryl-histidyl-leucine substrate, pH 8.3, 37° C., 30 minutes, read-out: IC50 in the ACE in vitro assay) | Structure (SMILES) | duration of inhibition of the Angiotensin I induced pressor response [1] | IC50 [3] | IC50 [2]
1 | – | CCOC(=O)[C@H](Cc1ccc(O)cc1)NC(=O)C1(NC(=O)[C@@H](SC(C)=O)C(C)C)CCCC1 [1 (b), N-[[1-[(2(S)-acetylmercapto-3-methyl-1-oxobutyl)amino]-1-cyclopentyl]carbonyl]-L-tyrosine ethyl ester] | six | – | –
2 | ~7 nM | CC(C)[C@H](S)C(=O)NC1(C(=O)N[C@@H](Cc2ccc(O)cc2)C(=O)O)CCCC1 [Example 2a] | – | ~2 nM | –
3 | – | COc1ccc(C[C@H](NC(=O)C2(NC(=O)[C@@H](S)C(C)C)CCCC2)C(=O)O)cc1 [Example 2i] | – | ~2.2 nM | ~19 nM
